US20080318947A1, “Inhibitors of Akt Activity” (priority 2005, published 2008)

How the values were obtained:
Assay in all cases: AKT enzyme assay (substrate phosphorylation, SPA)
Type in all cases: biochemical
AKT1 = biological target: T1, AKT1 (Homo sapiens, UniProt P31749); settings: 10 nM activated AKT enzyme, 4 uM ATP, 8 uM peptide, 40 minutes at room temperature; read-out: IC50 value against AKT1
T1 construct: Insect cells expressing His-tagged AKT1 (aa 136-480) are lysed; His; made in house; host or cells: insect cells
T1 sequence (P31749 136-480): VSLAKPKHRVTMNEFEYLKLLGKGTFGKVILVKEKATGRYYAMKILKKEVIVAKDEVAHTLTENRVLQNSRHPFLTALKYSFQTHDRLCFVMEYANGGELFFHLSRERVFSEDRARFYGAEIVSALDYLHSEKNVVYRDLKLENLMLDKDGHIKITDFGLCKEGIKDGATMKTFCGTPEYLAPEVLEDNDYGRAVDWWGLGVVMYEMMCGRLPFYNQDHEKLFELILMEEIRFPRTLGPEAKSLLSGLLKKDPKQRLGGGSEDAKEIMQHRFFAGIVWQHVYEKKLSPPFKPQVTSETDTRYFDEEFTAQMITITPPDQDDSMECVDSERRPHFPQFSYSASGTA
Method: Cell debris are removed by centrifuging at 28,000×g for 30 minutes. The supernatant is filtered through a […] filter then loaded onto a nickel-chelating column pre-equilibrated with lysis buffer. The column is washed with 5 column volumes (CV) of lysis buffer then with 5 CV of 20% buffer B, where buffer B is 25 mM HEPES, 100 mM NaCl, 300 mM imidazole; pH 7.5. […] The sample is then chromatographed over a Q-Sepharose HP column pre-equilibrated with buffer C. The column is washed with 5 CV of buffer C then step eluted with 5 CV 10% D, 5 CV 20% D, 5 CV 30% D, 5 CV 50% D and 5 CV of 100% D; where buffer D is 25 mM HEPES, 1000 mM NaCl; pH 7.5. […] The protein is pooled, concentrated and frozen at −80 C.
(§1) Compounds of the present invention are tested for AKT 1, 2, and 3 protein serine kinase inhibitory activity in substrate phosphorylation assays. This assay examines the ability of small molecule organic compounds to inhibit the serine phosphorylation of a peptide substrate. The substrate phosphorylation assays use the catalytic domains of AKT 1, 2, or 3. AKT 1, 2 and 3 are also commercially available from Upstate USA, Inc. The method measures the ability of the isolated enzyme to catalyze the transfer of the gamma-phosphate from ATP onto the serine residue of a biotinylated synthetic peptide SEQ. ID NO: 5 (Biotin-ahx-[…]-amide). Substrate phosphorylation is detected by the following procedure:
(§2) Assays are performed in 384 well U-bottom white plates. […] ATP/well, 1 mM CHAPS, 2 mM DTT, and 1 ul of test compound in 100% DMSO. The reaction is stopped by the addition of 50 ul SPA bead mix (Dulbecco's PBS without Mg^2+ and Ca^2+, 0.1% Triton X-100, 5 mM EDTA, 50 uM ATP, 2.5 mg/ml Streptavidin-coated SPA beads.) The plate is sealed, the beads are allowed to settle overnight, and then the plate is counted in a Packard Topcount Microplate Scintillation Counter (Packard Instrument Co., Meriden, Conn.).
(§3) The data for dose responses are plotted as % Control calculated with the data reduction formula 100*(U1−C2)/(C1−C2) versus concentration of compound where U is the unknown value, C1 is the average control value obtained for DMSO, and C2 is the average control value obtained for 0.1M EDTA. Data are fitted to the curve described by: y=((Vmax*x)/(K+x)) where Vmax is the upper asymptote and K is the IC50.

AKT2 = biological target: T2, AKT2 (Homo sapiens, UniProt P31751); settings: 10 nM activated AKT enzyme, 4 uM ATP, 8 uM peptide, 40 minutes at room temperature; read-out: IC50 value against AKT2
T2 construct: His-tagged AKT2 (aa 138-481) and His-tagged AKT3 (aa 135-479) are isolated; His; made in house; host or cells: insect cells (by 'similar fashion' to AKT1)
T2 sequence (P31751 138-481): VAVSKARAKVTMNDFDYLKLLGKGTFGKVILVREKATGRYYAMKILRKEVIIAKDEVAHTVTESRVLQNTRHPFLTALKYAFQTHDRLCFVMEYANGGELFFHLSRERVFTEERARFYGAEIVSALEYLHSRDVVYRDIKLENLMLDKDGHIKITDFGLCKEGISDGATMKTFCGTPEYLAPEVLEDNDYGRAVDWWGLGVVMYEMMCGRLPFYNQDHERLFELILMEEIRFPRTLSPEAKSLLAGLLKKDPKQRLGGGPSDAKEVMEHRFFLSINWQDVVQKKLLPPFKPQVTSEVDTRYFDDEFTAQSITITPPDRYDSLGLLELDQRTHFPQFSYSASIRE
Method: as §1, §2, §3

AKT3 = biological target: T3, AKT3 (Homo sapiens, UniProt Q9Y243); settings: 10 nM activated AKT enzyme, 4 uM ATP, 8 uM peptide, 40 minutes at room temperature; read-out: IC50 value against AKT3
T3 construct: His-tagged AKT3 (aa 135-479) are isolated and purified in a similar fashion; His; made in house; host or cells: insect cells (by 'similar fashion' to AKT1)
T3 sequence (Q9Y243 135-479): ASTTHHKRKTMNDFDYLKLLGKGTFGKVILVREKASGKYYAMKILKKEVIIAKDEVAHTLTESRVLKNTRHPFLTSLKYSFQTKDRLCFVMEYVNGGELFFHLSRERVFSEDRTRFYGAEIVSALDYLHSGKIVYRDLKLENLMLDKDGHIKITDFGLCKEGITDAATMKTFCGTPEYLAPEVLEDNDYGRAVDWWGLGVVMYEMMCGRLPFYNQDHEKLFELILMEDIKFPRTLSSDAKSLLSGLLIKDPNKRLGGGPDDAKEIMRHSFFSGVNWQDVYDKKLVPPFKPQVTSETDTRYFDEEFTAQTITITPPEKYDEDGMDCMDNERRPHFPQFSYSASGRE
Method: as §1, §2, §3

CCn1c(-c2nonc2N)nc2c(C#CC(C)(C)O)nc(OC(CN)c3cccc4c3OCO4)cc21 (racemic) [Example 92, 4-[6-{[2-amino-1-(1,3-benzodioxol-4-yl)ethyl]oxy}-2-(4-amino-1,2,5-oxadiazol-3-yl)-1-ethyl-1H-imidazo[4,5-c]pyridin-4-yl]-2-methyl-3-butyn-2-ol]
IC50 (AKT1): ≤ 500 nM | IC50 (AKT2): ≤ 500 nM | IC50 (AKT3): ≤ 500 nM

CCn1c(-c2nonc2N)nc2c(C#CC(C)(C)O)nc(OC(CN)c3cccc4c3OCO4)cc21 (single isomer, unassigned) [Example 93, 4-[6-{[2-amino-1-(1,3-benzodioxol-4-yl)ethyl]oxy}-2-(4-amino-1,2,5-oxadiazol-3-yl)-1-ethyl-1H-imidazo[4,5-c]pyridin-4-yl]-2-methyl-3-butyn-2-ol]
IC50 (AKT1): ≤ 500 nM | IC50 (AKT2): ≤ 500 nM | IC50 (AKT3): ≤ 500 nM

CCn1c(-c2nonc2N)nc2c(C#CC(C)(C)O)nc(OC(CN)C3CCCCC3)cc21 (single isomer, unassigned) [Example 123, 4-[6-[(2-amino-1-cyclohexylethyl)oxy]-2-(4-amino-1,2,5-oxadiazol-3-yl)-1-ethyl-1H-imidazo[4,5-c]pyridin-4-yl]-2-methyl-3-butyn-2-ol]
IC50 (AKT1): ≤ 500 nM | IC50 (AKT2): ≤ 500 nM | IC50 (AKT3): ≤ 500 nM

CCn1c(-c2nonc2N)nc2c(C#CC(C)(C)O)nc(OC[C@H](N)Cc3ccccc3)cc21 [Example 43, 4-(2-(4-amino-1,2,5-oxadiazol-3-yl)-6-{[(2R)-2-amino-3-phenylpropyl]oxy}-1-ethyl-1H-imidazo[4,5-c]pyridin-4-yl)-2-methyl-3-butyn-2-ol]
IC50 (AKT1): ≤ 500 nM | IC50 (AKT3): ≤ 500 nM

CCn1c(-c2nonc2N)nc2c(C#CC(C)(C)O)nc(OC(CN)c3ccccc3)cc21 (centres unmarked) [Example 77, 4-{2-(4-amino-1,2,5-oxadiazol-3-yl)-6-[(2-amino-1-phenylethyl)oxy]-1-ethyl-1H-imidazo[4,5-c]pyridin-4-yl}-2-methyl-3-butyn-2-ol]
IC50 (AKT3): ≤ 500 nM

CCn1c(-c2nonc2N)nc2c(C#CC(C)(C)O)nc(O[C@@H](CN)c3ccccc3)cc21 [Example 86, 4-(2-(4-amino-1,2,5-oxadiazol-3-yl)-6-{[(1R)-2-amino-1-phenylethyl]oxy}-1-ethyl-1H-imidazo[4,5-c]pyridin-4-yl)-2-methyl-3-butyn-2-ol]
IC50 (AKT3): ≤ 500 nM

CCn1c(-c2nonc2N)nc2c(C#CC(C)(C)O)nc(OC(CN)Cc3ccccc3)cc21 (centres unmarked) [Example 106, 4-(2-(4-amino-1,2,5-oxadiazol-3-yl)-6-{[2-amino-1-(phenylmethyl)ethyl]oxy}-1-ethyl-1H-imidazo[4,5-c]pyridin-4-yl)-2-methyl-3-butyn-2-ol]
IC50 (AKT1): ≤ 500 nM | IC50 (AKT2): ≤ 500 nM | IC50 (AKT3): ≤ 500 nM

CCn1c(-c2nonc2N)nc2c(C#CC(C)(C)O)nc(O[C@@H](CCN)c3ccccc3)cc21 [Example 108, 4-(2-(4-amino-1,2,5-oxadiazol-3-yl)-6-{[(1S)-3-amino-1-phenylpropyl]oxy}-1-ethyl-1H-imidazo[4,5-c]pyridin-4-yl)-2-methyl-3-butyn-2-ol]
IC50 (AKT3): ≤ 500 nM

CCn1c(-c2nonc2N)nc2c(C#CC(C)(C)O)nc(O[C@@H](c3ccccc3)[C@H]3CCCN3)cc21 [Example 117, 4-[2-(4-amino-1,2,5-oxadiazol-3-yl)-1-ethyl-6-([(S)-phenyl[(2R)-2-pyrrolidinyl]methyl]oxy)-1H-imidazo[4,5-c]pyridin-4-yl]-2-methyl-3-butyn-2-ol]
IC50 (AKT1): ≤ 500 nM | IC50 (AKT2): ≤ 500 nM | IC50 (AKT3): ≤ 500 nM

CCn1c(-c2nonc2N)nc2c(C#CC(C)(C)O)nc(OC(CN)c3cccc(OC)c3)cc21 (centres unmarked) [Example 132, 4-[6-({2-amino-1-[3-(methyloxy)phenyl]ethyl}oxy)-2-(4-amino-1,2,5-oxadiazol-3-yl)-1-ethyl-1H-imidazo[4,5-c]pyridin-4-yl]-2-methyl-3-butyn-2-ol]
IC50 (AKT1): ≤ 500 nM | IC50 (AKT2): ≤ 500 nM | IC50 (AKT3): ≤ 500 nM

CCn1c(-c2nonc2N)nc2c(C#CC(C)(C)O)nc(OC[C@H](N)Cc3ccccc3Cl)cc21 [Example 143, 4-[6-{[(2R)-2-amino-3-(2-chlorophenyl)propyl]oxy}-2-(4-amino-1,2,5-oxadiazol-3-yl)-1-ethyl-1H-imidazo[4,5-c]pyridin-4-yl]-2-methyl-3-butyn-2-ol]
IC50 (AKT1): ≤ 500 nM | IC50 (AKT2): ≤ 500 nM | IC50 (AKT3): ≤ 500 nM

CCn1c(-c2nonc2N)nc2c(C#CC(C)(C)O)nc(OC(CN)c3cccc(Cl)c3)cc21 (centres unmarked) [Example 151, 4-[6-{[2-amino-1-(3-chlorophenyl)ethyl]oxy}-2-(4-amino-1,2,5-oxadiazol-3-yl)-1-ethyl-1H-imidazo[4,5-c]pyridin-4-yl]-2-methyl-3-butyn-2-ol]
IC50 (AKT1): ≤ 500 nM | IC50 (AKT2): ≤ 500 nM | IC50 (AKT3): ≤ 500 nM

CCn1c(-c2nonc2N)nc2c(C#CC(C)(C)O)nc(OC(CN)c3ccccc3Cl)cc21 (centres unmarked) [Example 152, 4-[6-{[2-amino-1-(2-chlorophenyl)ethyl]oxy}-2-(4-amino-1,2,5-oxadiazol-3-yl)-1-ethyl-1H-imidazo[4,5-c]pyridin-4-yl]-2-methyl-3-butyn-2-ol]
IC50 (AKT1): ≤ 500 nM | IC50 (AKT2): ≤ 500 nM | IC50 (AKT3): ≤ 500 nM
